# Data from patent US20100168182A1, “COMPOUNDS AND COMPOSITIONS AS KINASE INHIBITORS” (IRM LLC, priority 2006, published 2010).
# How the values were obtained:
# [1] = target: T1, Ba/F3 cells transformed with human Tel-TrkA (ETV6-NTRK1) (Homo sapiens, UniProt P04629); assay: Inhibition of cellular TrkA dependent proliferation (Ba/F3 Tel-TrkA); assay type: cell-based; details: urea versus amide linkage
# T1 construct: expressed in transfected cells; host or cells: Ba/F3 murine hematopoietic progenitor cell line; the other entry of the earlier key: ETV6 (P41212, Transcription factor ETV6)
# Procedure: (§1) Inhibition of Cellular TrkA, trkB or TrkC Dependent Proliferation
# (§2) The cell line used is the Ba/F3 murine hematopoietic progenitor cell line transformed with human Tel-TrkA, Tel-TrkB or Tel-TrkC cDNAs (Ba/F3 EN A/B/C). These cells are maintained in RPMI/10% fetal bovine serum (RPMI/F B S) supplemented with penicillin 50 μg/mL, streptomycin 50 μg/mL and L-glutamine 200 mM. Untransformed Ba/F3 cells are similarly maintained with the addition 5 ng/ml of murine recombinant IL3.
# (§3) 50 μl of a Ba/F3 or Ba/F3 EN A/B/C cell suspension are plated in Greiner 384 well microplates (white) at a density of 2000 cells per well. 50 nl of serially diluted test compound (1 0-0.0001 mM in DMSO solution) is added to each well. […] The emited luminiscence is quantified using the Acquest™ system (Molecular Devices).
# (§4) Compounds of the invention are tested for their antiproliferative effect on Ba/F3 cells expressing either Tel-TrkA, Tel-TrkB or Tel-TrkC and an additional panel of 34 selected diverse kinases activated by fusion to the dimerizing partners Bcr or Tel (Abl, AlK, BMX, EphA3, EphB2, FGFR2, FGFR3, FGFR4, FGR, FLT1, FLT3, FLT4, FMS, IGF1R, InsR, JAK1, JAK2, JAK3, KDR, Kit, Lck, Lyn, MER, MET, PDGFRb, RET, RON, Ros-1, Src, Syk, TIE2, TYK2, Tie1, ZAP70). […] The IC50 values of the compounds in the different cell lines were determined from the dose response curves obtained as describe above.
# [2] = target: T2, Ba/F3 cells transformed with human Tel-TrkB (ETV6-NTRK2) (Homo sapiens, UniProt Q16620); assay: Inhibition of cellular TrkB dependent proliferation (Ba/F3 Tel-TrkB); assay type: cell-based; details: urea versus amide linkage
# T2 construct: expressed in transfected cells; host or cells: Ba/F3 murine hematopoietic progenitor cell line; the other entry of the earlier key: ETV6 (P41212, Transcription factor ETV6)
# Procedure: as §1, §2, §3, §4
# [3] = test system: Ba/F3 cells transformed with human Tel-TrkC (ETV6-NTRK3); assay: Inhibition of cellular TrkC dependent proliferation (Ba/F3 Tel-TrkC); assay type: cell-based; details: urea versus amide linkage
# Procedure: as §1, §2, §3, §4
# [4] = Measuring bioavailability: plasma concentration in mice; assay type: in vivo, male Balb/c mice; details: ratio compound 17 / compound A
# Procedure: Five- to six-week old male Balb/c mice are housed at room temperature (18 to 22° C.) and humidity in the range 40-70%. The animal weights at the time of compound administration range from 20 to 25 grams. The mice are fed a normal diet and have free access to water at all times, before and during experiments. Fasted animals are studied on an infrequent basis. To maximize drug absorption via oral gavage and/or study food effects, animals are fasted the night before dosing and 4 hours thereafter. Animal experiments are performed according to the Animal Welfare Act and the Guide for the Care and Use of Laboratory Animals approved by the Institutional Animal Care and Use Committee (IACUC).
# Test compounds are dissolved in a vehicle for dosing at a final concentration of 0.5 to 10 mg/mL. Test compounds are dosed intravenously via the lateral tail vein and orally using a gavage needle. Dosing procedures, dosing volumes, and the selection of dosing vehicles or formulations adhered to the Guidelines issued by the Novartis Pharmacology Council entitled “Preparation and Administration of Experimental Formulation in Pre-ESC Phase”. Briefly, i.v. doses are administered in solutions that are neutral and isotonic aqueous based and oral doses are administered in either solution (with or without co-solvent) or suspension.
# Blood samples are drawn via retro orbital sinus. For ease of handling, animals are sometimes anesthetized under isoflurane vapor. Approximately five 50 μl samples of blood are removed each sampling time.
# Pharmacokinetic parameters are calculated by non-compartmental regression analysis using Winnonlin 4.0 software (Pharsight, Mountain View, Calif., USA). The typical intravenous and oral dosing study in mice would results in the reporting of the following pharmacokinetic parameters: i.v. dosing: Vss, CL, AUC, Cmax, Tmax, Clast, Tlast and T1/2; and p.o. dosing: F, AUC, Cmax, Tmax, Clast, Tlast and T1/2.
# T1 sequence (P04629 510-796 limits assumed): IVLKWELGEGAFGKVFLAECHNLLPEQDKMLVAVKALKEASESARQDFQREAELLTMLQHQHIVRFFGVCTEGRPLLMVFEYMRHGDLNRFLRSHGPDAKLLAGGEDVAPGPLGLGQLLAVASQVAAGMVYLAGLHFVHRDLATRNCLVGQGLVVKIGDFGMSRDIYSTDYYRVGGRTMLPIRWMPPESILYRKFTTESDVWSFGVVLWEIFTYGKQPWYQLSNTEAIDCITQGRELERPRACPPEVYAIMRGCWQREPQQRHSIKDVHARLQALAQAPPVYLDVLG
# T2 sequence (Q16620 538-822 limits assumed): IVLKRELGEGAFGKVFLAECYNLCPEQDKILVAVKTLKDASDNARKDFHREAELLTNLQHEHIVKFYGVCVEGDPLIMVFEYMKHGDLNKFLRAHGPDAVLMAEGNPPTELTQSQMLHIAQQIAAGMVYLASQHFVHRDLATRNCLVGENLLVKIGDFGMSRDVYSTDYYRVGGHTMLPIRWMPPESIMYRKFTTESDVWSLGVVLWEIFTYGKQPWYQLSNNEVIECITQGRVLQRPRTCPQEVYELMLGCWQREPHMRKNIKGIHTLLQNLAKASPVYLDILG
SMILES,potency for TrkA relative to the equivalent amide-linked compound (compound A) [1],potency for TrkB relative to the equivalent amide-linked compound (compound A) [2],potency for TrkC relative to the equivalent amide-linked compound (compound A) [3],plasma concentration relative to compound A ([4]; at 30 minutes) [times],plasma concentration relative to compound A ([4]; at 1 hour) [times],plasma concentration relative to compound A ([4]; at 3 hours) [times],plasma concentration relative to compound A ([4]; at 5 hours) [times],melting point [°C]
"O=C(Nc1cccc(Nc2ccc3c(c2)NC(=O)/C3=C\c2ccc[nH]2)c1)Nc1ccc(F)cc1F [Compound 17, 1-(2,4-Difluoro-phenyl)-3-{3-[2-oxo-3-(1H-pyrrol-2-ylmethylene)-2,3-dihydro-1H-indol-6-ylamino]-phenyl}-urea]",at least 132 fold,at least 132 fold,at least 132 fold,2.2,4.1,4.7,2.3,
"O=C(Nc1cccc(Nc2ccc3c(c2)NC(=O)/C3=C\c2ccc[nH]2)c1)Nc1cccc(C(F)(F)F)c1 [Example 1, 1-{3-[2-oxo-3-(1H-pyrrol-2-ylmethylene)-2,3-dihydro-1H-indol-6-ylamino]phenyl}-3-(3-trifluoromethylphenyl)urea]",,,,,,,,253 to 256
"O=C(Nc1cccc(Nc2ccc3c(c2)NC(=O)/C3=C\c2ccc[nH]2)c1)Nc1cc(F)c(F)cc1F [Example 3, 1-{3-[2-oxo-3-(1H-pyrrol-2-ylmethylene)-2,3-dihydro-1H-indol-6-ylamino]phenyl}-3-(2,4,5-trifluorophenyl)urea]",,,,,,,,224 to 226
